The assay deals with HeLa cells. The assay is described as follows: 1H NMR metabolomic profiling of HeLa cells. The format is cell-based, human. Conditions: 12 μM, 2 hours. As to the method:
HeLa cells (1 × 10^6) were seeded in Ø100-mm cell culture dishes and allowed to adhere for 48 hours. Cells were then treated with DMSO or 12 μM Carba1 for 2 hours at 37°C and 5% CO2. After treatment, the medium was removed, and cells were washed with PBS at R.T. before quenching with methanol at −20°C and scrapping ([70]). Dried extracts were obtained by evaporating the solvent under gentle N2 flow and stored at −80°C until analysis. For NMR, extracts were resuspended in 620 μl of 100% D2O phosphate buffer (pH 7.4), and 550 μl was transferred into 5-mm NMR tubes. Untargeted NMR analysis was performed at 27°C on a Bruker Avance IVDr spectrometer (600 MHz, ^1H resonance) with a conventional Broadband Inverse (BBI) probe. ^1H metabolic profiles were acquired using a NOESY experiment with water presaturation (Bruker pulse program noesygppr1d) and a spectral width of 11,904.792 Hz. Experimental parameters included a 10-ms mixing time, 2-s acquisition time, 3-s recycle delay, and 512 scans. The 90°s pulse length was calibrated at ~11.09 μs per sample after automatic shimming and tuning. NMR free induction decays were multiplied by an exponential function corresponding to a line broadening of 0.3 Hz before Fourier transform. […]

This note sets out measurements from article PMC12571071, “Preventing neuropathy and improving anticancer chemotherapy with a carbazole-based compound” (Science Advances, 2025).

For the molecule `Cc1cc(-n2cccc2)c(C)c2c1[nH]c1ccc(Cl)cc12` [Compound 1], the GTP levels entry is “significant increase” and the “NAD+ abundance” value is “significant decrease”.
